According to patent US9364479B2, “Use of a receptor-type kinase modulator for treating polycystic kidney disease” (SYMPHONY EVOLUTION, INC., priority 2010, dated 2016):

What was measured:
Estrogen = assay: NovaScreen assay; type: binding
KDR = KDR (Homo sapiens, UniProt P35968); assay: Cellular autophosphorylation assay; type: cell-based
[1] = tested on: HN5 human tumor xenograft; assay: HN5 xenograft, tumor growth; type: in vivo; details: Mus musculus; qd × 14
Protocol: (§1) The response of tumors to treatment was determined by comparing the mean tumor weight of the treatment group with the appropriate control group. Percentage inhibition of tumor growth was determined with the following formula: Percentage inhibition=100×[1−(Xf−Xo)/(Yf−Yo)], where Xf and Yf are the mean tumor weights of the treatment and control groups, respectively, on day f, and Xo and Yo are the mean tumor weights of treatment and control groups respectively, on day zero (staged tumor weights after grouping)

Neurokinin, NK1 = biological target: T1, Neurokinin, NK1 (Homo sapiens, UniProt P25103); assay: NovaScreen assay; type: binding; details: read-out: Inhibition, 10 μM XL-647
T1 construct: NovaScreen
T1 sequence (P25103 whole entry): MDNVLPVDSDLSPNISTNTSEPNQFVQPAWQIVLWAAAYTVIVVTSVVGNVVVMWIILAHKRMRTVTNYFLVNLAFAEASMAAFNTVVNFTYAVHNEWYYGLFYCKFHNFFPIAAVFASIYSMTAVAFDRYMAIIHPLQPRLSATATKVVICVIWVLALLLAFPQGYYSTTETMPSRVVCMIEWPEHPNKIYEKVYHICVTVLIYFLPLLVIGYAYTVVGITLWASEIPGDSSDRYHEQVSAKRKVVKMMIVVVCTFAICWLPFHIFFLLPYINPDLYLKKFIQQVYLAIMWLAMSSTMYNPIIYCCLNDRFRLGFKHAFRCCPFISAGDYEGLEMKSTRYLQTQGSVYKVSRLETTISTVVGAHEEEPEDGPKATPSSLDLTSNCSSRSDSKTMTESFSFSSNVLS

[2] = human, in vivo
[3] = type: in vitro ADME; details: human
[4] = tested on: A431 human epidermoid carcinoma xenograft; assay: A431 xenograft model, tumor growth; type: in vivo, mouse; details: for ED50: Mus musculus
Protocol: Female severe combined immunodeficient mice and female athymic nude mice (NCr), 5 to 8 weeks of age and weighing ˜20 to 25 g, were purchased from The Jackson Laboratory and Taconic, respectively. The animals were housed at the Exelixis vivarium facilities according to guidelines outlined by the Exelixis Institutional Animal Care and Use Committee. During all studies, animals were provided food and water ad libitum and housed in a room conditioned at 70° F. to 75° F. and 60% relative humidity.
Before treatment, H1975, A431, or MDA-MB-231 cells were harvested from exponentially growing cultures, detached by brief trypsinization, washed twice in cold HBSS, resuspended in ice-cold HBSS, and implanted either s.c. (H1975, 3×10^6 cells per mouse) or i.d. (A431, 1×10^6 cells per mouse) into the dorsal hind flank or s.c. into the mammary fat pad (MDA-MB-231, 1×10^6 cells per mouse). Palpable tumors were measured by caliper twice weekly until the mean tumor weight was in the range of ˜80 to 120 mg. Tumor weight was determined by measuring perpendicular diameters with a caliper and multiplying the measurements of diameters in two dimensions: tumor […]. Tumor weight (mg) was extrapolated from tumor volume (mm3) by assuming a conversion factor of 1. On the appropriate day after implantation, mice were grouped (10 mice per group) such that the group mean tumor weight was ˜100±15 mg. The mean tumor weight of each animal in the respective control and treatment groups was determined twice weekly during the dosing periods. Tumor xenografts were established in female mice and allowed to reach approximately 100 mg prior to treatment. An example is described in Gendreau S B, Ventura R, Keast P, et al., Inhibition of the T790M Gatekeeper Mutant of the Epidermal Growth Factor Receptor by EXEL-7647, Clin Cancer Res 3713, 13(12) (2007), which is hereby incorporated by reference.
as §1

c-Kit = c-Kit (Homo sapiens, UniProt P10721); assay: AlphaScreen kinase assay; type: biochemical; parameters: Human, T544-; MgCl2, 3 mM MnCl2, 1 mM; V976, N-GST,; GST (N); purchased ProQinase
Chain of c-Kit (P10721 544-976): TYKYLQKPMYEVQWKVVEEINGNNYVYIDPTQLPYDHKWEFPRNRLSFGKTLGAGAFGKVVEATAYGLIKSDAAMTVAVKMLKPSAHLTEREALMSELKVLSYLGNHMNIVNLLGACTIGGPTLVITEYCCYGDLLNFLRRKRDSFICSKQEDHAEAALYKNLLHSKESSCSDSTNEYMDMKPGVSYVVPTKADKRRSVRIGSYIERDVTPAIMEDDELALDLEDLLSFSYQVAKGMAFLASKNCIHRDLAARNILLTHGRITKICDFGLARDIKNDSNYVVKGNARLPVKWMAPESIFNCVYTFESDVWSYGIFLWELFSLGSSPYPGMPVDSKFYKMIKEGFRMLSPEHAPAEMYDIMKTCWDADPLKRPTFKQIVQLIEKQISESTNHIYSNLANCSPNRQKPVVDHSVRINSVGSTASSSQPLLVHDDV
Protocol: An AlphaScreen tyrosine kinase assay was used to measure ErbB2 and Flt-4 activity. Donor beads coated with streptavidin and acceptor beads coated with PY100 anti-phosphotyrosine antibody (Perkin-Elmer) were used. Biotinylated poly(Glu,Tyr) 4:1 was used as the substrate. Substrate phosphorylation was measured by luminescence following donor-acceptor bead addition followed by complex formation. Test compound, 3 μmol/L ATP, 3 nmol/L biotinylated poly(Glu,Tyr) 4:1, and 1 nmol/L ErbB2 (residues Q679-V1255 of human ErbB2, Proqinase) or Flt-4 (residues D725-R1298 of human Flt-4, Proqinase) were combined in a volume of 20 μL Assay Buffer (20 mM TrisHCl, pH 7.5, 10 mM MgCl2, 3 mM MnCl2, 1 mM DTT, 0.01% Triton) in a 384-well white, medium-binding microtiter plate (Greiner). Reaction mixtures were incubated for 1 h at room temperature. Reactions were quenched by addition of 10 μL of 15 to 30 μg/mL AlphaScreen bead suspension containing 75 mmol/L HEPES (pH 7.4), 300 mmol/L NaCl, 120 mmol/L EDTA, 0.3% bovine serum albumin, and 0.03% Tween 20. After 2 to 16 h of incubation at room temperature, plates were read using an AlphaQuest reader (Perkin-Elmer).
Further screening was performed using the biochemical assay methods of Example 2. Additional description of the components and concentrations are summarized in Table 8, Table 9, and Table 10, below.

[5] = tested on: Muscarinic, Non-selective, Central; assay: NovaScreen assay; type: binding

Chain of KDR (P35968 20-1356, species assumed): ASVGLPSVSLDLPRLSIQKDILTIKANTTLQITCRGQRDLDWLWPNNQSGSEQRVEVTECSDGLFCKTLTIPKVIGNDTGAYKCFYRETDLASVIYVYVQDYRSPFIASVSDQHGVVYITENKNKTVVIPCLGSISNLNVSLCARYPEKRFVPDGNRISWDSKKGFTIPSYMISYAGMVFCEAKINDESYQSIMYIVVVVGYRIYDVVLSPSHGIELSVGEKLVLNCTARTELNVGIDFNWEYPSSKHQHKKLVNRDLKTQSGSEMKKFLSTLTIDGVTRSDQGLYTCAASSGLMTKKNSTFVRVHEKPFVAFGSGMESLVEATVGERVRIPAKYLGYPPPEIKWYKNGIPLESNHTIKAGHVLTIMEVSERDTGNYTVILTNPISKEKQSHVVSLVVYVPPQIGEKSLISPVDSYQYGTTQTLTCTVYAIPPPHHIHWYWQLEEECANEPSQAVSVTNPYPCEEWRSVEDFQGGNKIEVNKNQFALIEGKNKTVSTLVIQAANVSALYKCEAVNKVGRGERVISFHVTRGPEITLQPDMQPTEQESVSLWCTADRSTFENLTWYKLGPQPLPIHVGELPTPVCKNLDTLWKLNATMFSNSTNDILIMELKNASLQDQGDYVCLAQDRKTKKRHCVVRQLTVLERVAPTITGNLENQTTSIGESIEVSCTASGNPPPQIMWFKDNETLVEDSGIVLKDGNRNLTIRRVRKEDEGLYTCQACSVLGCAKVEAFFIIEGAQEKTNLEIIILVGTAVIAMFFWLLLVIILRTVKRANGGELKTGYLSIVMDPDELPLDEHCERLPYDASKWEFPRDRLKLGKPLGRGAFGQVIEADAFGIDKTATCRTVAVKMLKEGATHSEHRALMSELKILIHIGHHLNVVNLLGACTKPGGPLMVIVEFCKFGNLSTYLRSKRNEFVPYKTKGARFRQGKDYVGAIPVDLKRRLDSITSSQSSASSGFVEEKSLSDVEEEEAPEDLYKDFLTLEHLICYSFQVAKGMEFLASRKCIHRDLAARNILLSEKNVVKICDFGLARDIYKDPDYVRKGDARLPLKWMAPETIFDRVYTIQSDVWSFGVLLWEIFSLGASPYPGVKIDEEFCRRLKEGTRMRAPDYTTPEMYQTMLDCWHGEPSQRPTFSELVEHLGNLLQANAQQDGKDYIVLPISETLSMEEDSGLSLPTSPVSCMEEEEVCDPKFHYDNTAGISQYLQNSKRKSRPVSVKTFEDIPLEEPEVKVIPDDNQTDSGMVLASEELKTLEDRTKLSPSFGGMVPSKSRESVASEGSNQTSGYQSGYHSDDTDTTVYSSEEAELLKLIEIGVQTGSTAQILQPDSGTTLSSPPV

SMILES: COc1cc2c(Nc3ccc(Cl)c(Cl)c3F)ncnc2cc1OC[C@@H]1C[C@@H]2CN(C)C[C@@H]2C1 [XL-647, N-(3,4-dichloro-2-fluorophenyl)-7-({[(3aR,5r,6aS)-2-methyloctahydrocyclopenta[c]pyrrol-5-yl]methyl}oxy)-6-(methyloxy)quinazolin-4-amine]
- Inhibition, 10 μM XL-647 (Estrogen): 15.75%
- IC50 (KDR): 137 nM
- ED50 [1]: < 3 mg/kg
- inhibition at 10 µM (Neurokinin, NK1): 20.4%
- most common adverse events (frequency ≧10%) [2]: diarrhea, rash, fatigue, nausea, dry skin, cough, dyspnoea, anorexia, electrocardiogram QT prolongation (machine-read), vomiting, constipation, dysgeusia, upper respiratory tract infection, abdominal pain, back pain, pyrexia, dizziness, and dry mouth
- protein bound [3]: 93-97.5%
- tumor growth inhibition ([4]; 10 mg/kg/day oral, 14 days): 65%
- final tumor weight (marked regression) ([4]; 100 mg/kg/day oral, 14 days, starting weight 109±20 mg): 36 ± 15 mg
- tumor growth, in words ([4]; 10, 30, and 100 mg/kg/day oral, 14 days): significantly inhibited tumor growth in a dose dependent manner
- ED50 ([4]; A-431, qd × 14): 5.9 mg/kg
- ED50 ([4]; A-431, qd × 28): 3.8 mg/kg
- IC50 (c-Kit): 132 ± 8.2 nM
- IC50 [5]: 2570 nM
- Inhibition, 10 μM XL-647 ([5]; 10 μM): 97.91%
